These results are taken from ChEMBL document CHEMBL1201862, “PubChem BioAssay data set” (2004).

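All cell lines were grown in 96-well plates and treated with compound for 48 hours. GI50 is the concentration that inhibits growth by half.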 Calls of active or inactive are those of the source. Rule as the data show it: active = GI50 up to about 1.1 µM and inactive = higher.

Some test systems named below: COLO 205; SW-620; T47D; NCI-H23; SNB-75; HT-29; M14; 786-0; UO-31; RXF 393; Malme-3M; SK-OV-3; OVCAR-5; TK-10; Hs-578T; MCF7; KM12; MDA-MB-435; MDA-MB-231; LOX IMVI.
Holding throughout (test): inhibition of tumour cell growth, NCI panel, 48 h

For `CC(C)(C)OC(=O)N1CC(COS(C)(=O)=O)c2ccc(O)cc21` (stereo not given), the GI50 is 1.58 µM (inactive) in the assay on COLO 205; 2.1 µM (inactive) in the assay with SW-620; 3.05 µM (inactive) in the assay on T47D; 1.14 µM (inactive) in the assay with NCI-H23; 1.46 µM (inactive) with SNB-75; 3.21 µM (inactive) in the assay with HT-29. Further, the GI50 is 1.72 µM (inactive) in the assay on M14; 2.59 µM (inactive) with 786-0; 1.97 µM (inactive) in the assay on UO-31; 0.288 µM (active) in the assay on RXF 393; 1.52 µM (inactive) in the assay on Malme-3M; 3.15 µM (inactive) with SK-OV-3. The GI50 in the assay with OVCAR-5 is 2.12 µM (inactive); with TK-10 it was 3.37 µM (inactive); in the assay on Hs-578T it was 2.46 µM (inactive); with MCF7, 1.13 µM (inactive); in the assay on KM12, 2.46 µM (inactive); in the assay with MDA-MB-435, 1.8 µM (inactive). Further, in the assay on MDA-MB-231, the GI50 was 2.77 µM (inactive).

On to `Cn1c(=O)oc2cc(C(=O)CSC(=S)N3CCCCCC3)ccc21`, for which the GI50 in the assay with COLO 205 was > 100 µM (inactive); with SW-620, > 100 µM (inactive); in the assay with T47D, 86.7 µM (inactive); in the assay with NCI-H23 it was > 100 µM (inactive); in the assay with SNB-75, > 100 µM (inactive); in the assay on HT-29, 18.7 µM (inactive). For the same compound, the GI50 with M14, in the assay with 786-0, in the assay on UO-31, with RXF 393, in the assay on Malme-3M and with SK-OV-3 was > 100 µM (inactive) throughout. The GI50 is > 100 µM (inactive) in the assay on OVCAR-5; > 100 µM (inactive) with TK-10; 19 µM (inactive) in the assay with Hs-578T; > 100 µM (inactive) in the assay on MCF7; 49.8 µM (inactive) in the assay on KM12; > 100 µM (inactive) in the assay with MDA-MB-435. In the assay with MDA-MB-231, the GI50 was > 100 µM (inactive).

As for `C=CC[C@H]1[C@H](O[Si](C)(C)C(C)(C)C)C=CC(=O)[C@@H]1CC(=O)OCC`, the GI50 in the assay on COLO 205 was 15.3 µM (inactive); with SW-620, 15.5 µM (inactive); in the assay on T47D it was 6.04 µM (inactive); in the assay on NCI-H23, 15.5 µM (inactive); with SNB-75, 16.3 µM (inactive); in the assay on HT-29, 9.06 µM (inactive). For the same compound, the GI50 in the assay on M14 is 12.7 µM (inactive); with 786-0, 14.5 µM (inactive); in the assay with UO-31, 12.9 µM (inactive); with RXF 393, 12.2 µM (inactive); in the assay with Malme-3M it was 12.7 µM (inactive); with SK-OV-3, 18.3 µM (inactive). Moreover, the GI50 with OVCAR-5 was 14.1 µM (inactive); in the assay on LOX IMVI, 17.5 µM (inactive); in the assay on TK-10, 14.8 µM (inactive); in the assay on Hs-578T, 19 µM (inactive); with MCF7, 11.5 µM (inactive); in the assay on KM12, 13.4 µM (inactive). The GI50 in the assay on MDA-MB-435 is 13.4 µM (inactive); in the assay with MDA-MB-231, 14.5 µM (inactive).

For `CC1CCC(C(C)C2C(O)CC3C4CC=C5CC(O)CCC5(C)C4CCC32C)NC1` (stereo not given), the GI50 in the assay on COLO 205 was > 100 µM (inactive); in the assay with SW-620, 31.7 µM (inactive); with T47D, 62.1 µM (inactive); with NCI-H23 it was 36.9 µM (inactive); with SNB-75, 28.2 µM (inactive); in the assay with HT-29 it was 43.1 µM (inactive). Besides, the GI50 was > 100 µM (inactive) in the assay on M14; 32.2 µM (inactive) in the assay on 786-0; 41.4 µM (inactive) in the assay on UO-31; 65 µM (inactive) in the assay on RXF 393; 20.6 µM (inactive) in the assay on Malme-3M; > 100 µM (inactive) in the assay on SK-OV-3. Besides, the GI50 is 89.7 µM (inactive) in the assay on OVCAR-5; 21.3 µM (inactive) in the assay on LOX IMVI; 14.5 µM (inactive) in the assay on TK-10; 35.9 µM (inactive) with Hs-578T; 39.4 µM (inactive) with MCF7; 30.9 µM (inactive) in the assay on MDA-MB-435. The GI50 in the assay with MDA-MB-231 was 24.7 µM (inactive).

Consider `Nc1ccc(OCCCc2c(-c3ccccc3)[nH]c(N)nc2=O)cc1`, for which the GI50 in the assay with COLO 205 is 26 µM (inactive); in the assay with SW-620, > 100 µM (inactive); with T47D, 12.2 µM (inactive); with NCI-H23, 47.2 µM (inactive); with SNB-75 it was 66.4 µM (inactive); in the assay with HT-29, < 0.01 µM (active). Also, the GI50 was 32.5 µM (inactive) with M14; 45.2 µM (inactive) with 786-0; 26 µM (inactive) in the assay on UO-31; 63.8 µM (inactive) with RXF 393; 26.8 µM (inactive) in the assay on Malme-3M; 21.4 µM (inactive) with SK-OV-3. Further, the GI50 with OVCAR-5 was > 100 µM (inactive); in the assay on LOX IMVI, 31 µM (inactive); in the assay with Hs-578T it was 12.3 µM (inactive); with MCF7, 40.3 µM (inactive); in the assay with KM12, 67.8 µM (inactive); in the assay with MDA-MB-435 it was 49.7 µM (inactive). Moreover, in the assay with MDA-MB-231, the GI50 was 29.9 µM (inactive).

`CCOC(=O)C(CS)NC(=O)CCCCCCCC(=O)NC(CS)C(=O)OCC` (stereo not given): the GI50 in the assay with COLO 205, with SW-620, in the assay on T47D, in the assay with NCI-H23, in the assay with SNB-75 and with HT-29 was > 100 µM (inactive) throughout. Also, the GI50 is > 100 µM (inactive) in the assay on M14; > 100 µM (inactive) in the assay with 786-0; > 100 µM (inactive) in the assay on UO-31; 92 µM (inactive) in the assay on Malme-3M; > 100 µM (inactive) with SK-OV-3; > 100 µM (inactive) in the assay with OVCAR-5. The GI50 in the assay with LOX IMVI was 86.9 µM (inactive); with TK-10 it was > 100 µM (inactive); in the assay on Hs-578T it was > 100 µM (inactive); in the assay on MCF7, > 100 µM (inactive); with KM12 it was > 100 µM (inactive); in the assay with MDA-MB-435, > 100 µM (inactive). Besides, the GI50 in the assay with MDA-MB-231 was > 100 µM (inactive).

As for `C[C@]1(S(=O)(=O)c2ccccc2)C[C@H]2N(Cc3ccccc3)[C@@H]1CCC21OCCO1`, the GI50 in the assay with COLO 205 was 50.5 µM (inactive); in the assay with SW-620, 94.6 µM (inactive); with T47D it was 41.6 µM (inactive); in the assay on NCI-H23 it was 60.5 µM (inactive); with SNB-75 it was > 100 µM (inactive); in the assay with HT-29 it was 58.6 µM (inactive). Moreover, the GI50 in the assay on M14, in the assay with 786-0, with UO-31, with RXF 393, with Malme-3M and in the assay on SK-OV-3 was > 100 µM (inactive) throughout. Further, the GI50 in the assay on OVCAR-5 was > 100 µM (inactive); in the assay with LOX IMVI it was > 100 µM (inactive); in the assay with Hs-578T it was > 100 µM (inactive); in the assay on MCF7, 78.9 µM (inactive); with KM12, 58.2 µM (inactive); in the assay on MDA-MB-435 it was > 100 µM (inactive). Further, in the assay on MDA-MB-231, the GI50 was > 100 µM (inactive).

Regarding `CON(C)C(=O)[C@H]1C[C@@]1(C)CO`, the GI50 in the assay with COLO 205, in the assay with SW-620, in the assay on T47D, in the assay with NCI-H23, in the assay on SNB-75 and in the assay with HT-29 was > 100 µM (inactive) throughout. The GI50 in the assay with M14, in the assay on 786-0, in the assay on UO-31, in the assay on RXF 393, in the assay with Malme-3M and in the assay with SK-OV-3 was > 100 µM (inactive) each time. The GI50 in the assay with OVCAR-5, with TK-10, in the assay with Hs-578T, with MCF7, in the assay on KM12 and with MDA-MB-435 was > 100 µM (inactive) each time. Moreover, the GI50 in the assay with MDA-MB-231 was > 100 µM (inactive).

Consider `Cc1csc2nc3[nH]ncc3c(=O)n12`, for which the GI50 with COLO 205 is > 100 µM (inactive); with SW-620, > 100 µM (inactive); in the assay with T47D it was > 100 µM (inactive); in the assay with NCI-H23, > 100 µM (inactive); in the assay on SNB-75 it was 61 µM (inactive); in the assay with HT-29 it was > 100 µM (inactive). In addition, the GI50 with M14 is > 100 µM (inactive); in the assay on 786-0, > 100 µM (inactive); with UO-31 it was 81.8 µM (inactive); with Malme-3M, > 100 µM (inactive); with SK-OV-3 it was > 100 µM (inactive); with OVCAR-5, > 100 µM (inactive). Besides, the GI50 in the assay with LOX IMVI is > 100 µM (inactive); in the assay on Hs-578T, 28.4 µM (inactive); in the assay on MCF7 it was > 100 µM (inactive); in the assay on KM12, > 100 µM (inactive); in the assay on MDA-MB-435, > 100 µM (inactive); in the assay on MDA-MB-231, > 100 µM (inactive).

`COc1c(C)c2c(c(O)c1C/C=C(\C)CCC(=O)O)C(=O)OC2` [MYCOPHENOLIC ACID]: the GI50 in the assay with COLO 205 was 1.08 µM (active); in the assay with SW-620 it was 0.571 µM (active); in the assay on T47D it was 7.33 µM (inactive); with NCI-H23 it was 0.471 µM (active); in the assay on SNB-75, 6.81 µM (inactive); in the assay with HT-29 it was 0.867 µM (active). Further, the GI50 with M14 was 1.58 µM (inactive); in the assay with 786-0, 0.667 µM (active); with UO-31 it was 3.1 µM (inactive); with RXF 393, 2.78 µM (inactive); in the assay on SK-OV-3, 1.43 µM (inactive); with OVCAR-5 it was 7.05 µM (inactive). Moreover, the GI50 in the assay with LOX IMVI is 0.401 µM (active); in the assay on TK-10, 17.4 µM (inactive); with Hs-578T it was 2.51 µM (inactive); in the assay on MCF7, 0.376 µM (active); in the assay with KM12, 0.944 µM (active); with MDA-MB-435, 0.871 µM (active). The GI50 with MDA-MB-231 is 2 µM (inactive).
